The text below walks through data of patent publication US8298781B2, “Compositions and methods for characterizing and regulating olfactory sensation” (Duke University, priority 2007, dated 2012).

In this test the test system is human subjects. The test can be described thus: Human olfactory psychophysics: intensity rating by OR7D4 genotype. In kind it is in vivo. To be noted: for intensity rating, OR7D4 RT/WM vs RT/RT subjects: 7-point scale, two concentrations pooled, N=100 RT/WM, N=255 RT/RT; for intensity rating, RT/S84N subjects vs RT/RT controls: N=7 RT/S84N; for reduction in odor intensity, OR7D4 WM/WM subjects: N=10 WM/WM, compared with RT/WM; for intensity rating, RT/P79L subjects vs RT/RT controls: N=30 RT/P79L. As for the experimental part: Human olfactory psychophysics. All human subjects gave informed consent to participate in this study and were tested in a well-ventilated room. Normal human subjects (n=412; 218 female, 194 male; median age 34, age range 19-75) were pre-screened to exclude pregnant women and those with medical conditions causing general impairment of the sense of smell. All subjects completed two replicates of the test separated by at least 4 days. Odors were presented in amber vials as previously described (see, e.g., Keller, A., et al., Nat Neurosci 7, 337-338 (2004); herein incorporated by reference in its entirety) using bar-coded symbols to ensure that subjects were blind to the identity of all odors. The intensity and valence of 66 odors at two concentrations (“high” and “low”) and two solvents was rated using a 7-point scale. Thresholds were calculated using the single staircase method with seven reversals (see, e.g., Doty, R. L., et al., Chem Senses 20, 645-656 (1995); Doty, R. L. & Laing, D. G. in Handbook of Olfaction and Gustation (ed. Doty, R. L.) pp. 203-228 (Marcel Dekker, Inc., New York, 2003); each of which are herein incorporated by reference in their entireties). Threshold tests included both steroids as binary dilutions from […] (binary dilution 6) to 1: 134,217,728 (binary dilution 27). Subjects who could not reliably distinguish a 1:64 dilution of androstenone and androstadienone from solvent were operationally defined as anosmic to these odorous steroids, although it could not be excluded that these subjects could detect higher concentrations of these steroids (see, e.g., Bremner, E. A., et al., Chem Senses 28, 423-432 (2003); herein incorporated by reference in its entirety). Odor profiling used the method established by Dravnieks, et al. (see, e.g., Dravnieks, A., et al., Science 218, 799-801 (1982); herein incorporated by reference in its entirety).
Stimuli for olfactory psychophysics. All odors were presented as one ml of an odor dilution in either propylene glycol or paraffin oil in 20 ml amber glass vials. All of these compounds were used in the intensity and valence rating portion of the smell test.
Olfactory ratings. The intensity and valence of 66 odors were rated at two different concentrations (high and low) and the intensity and valence of the two solvents (paraffin oil and propylene glycol) was rated three times. Prior to these ratings, six stimuli that represented the spectrum of intensity and valence of the stimuli used in the study were presented to allow the subjects to calibrate the usage of the scale. The subjects were unaware that the six first stimuli served that purpose. After the rating of the 66 odors at two concentrations and the rating of the solvents, 15 stimuli that were presented earlier in the experiment were repeated to test for the effect of adaptation and olfactory fatigue on the ratings. The subjects were not aware that the last 15 stimuli served this purpose. These 15 stimuli and the six first stimuli were not included in the analysis presented here. […] The 15 control stimuli and their concentrations were as follows:
In addition there was a button on the screen labeled “I can't smell anything” and a button labeled “Don't Know”. If the “Don't Know” button was pressed, no rating was recorded. If the “I can't smell anything” button was pressed, a 0 was recorded for the intensity rating and no rating was recorded for the valence rating. The other ratings were transformed according to the following scheme:
• Extremely Weak=1 • Very Weak=2 • Slightly Weak=3 • Neither Weak nor Strong=4 • Slightly Strong=5 • Very Strong=6 • Extremely Strong=7 Valence Rating • Extremely Unpleasant=1 • Very Unpleasant=2 • Slightly Unpleasant=3 • Neither Unpleasant nor Pleasant=4 • Slightly Pleasant=5 • Very Pleasant=6 • Extremely Pleasant=7
Averages for the ratings of the different genotypes were calculated. […]

Turning to `C[C@]12CCC(=O)C[C@@H]1CC[C@@H]1[C@@H]2CC[C@]2(C)C=CC[C@@H]12` [androstenone, 5α-androst-16-en-3-one], the “intensity rating, OR7D4 RT/WM vs RT/RT subjects” value was “less intense”; the “intensity rating, RT/S84N subjects vs RT/RT controls” value was “more intense”; the “reduction in odor intensity, OR7D4 WM/WM subjects” value is reported as “more marked”; the “intensity rating, RT/P79L subjects vs RT/RT controls” value is reported as “less intense”.

Turning to `C[C@@]12C=CC[C@H]1[C@@H]1CCC3=CC(=O)CC[C@]3(C)[C@H]1CC2` [androstadienone, androsta-4,16-dien-3-one], the “intensity rating, OR7D4 RT/WM vs RT/RT subjects” value is given as “less intense”; the “intensity rating, RT/S84N subjects vs RT/RT controls” value is “more intense”; the “reduction in odor intensity, OR7D4 WM/WM subjects” value is on record as “more marked”; the “intensity rating, RT/P79L subjects vs RT/RT controls” value is reported as “less intense”.
